According to patent publication US20080015147A1, “Method for inhibiting neuronal cell death” (priority 2006, published 2008):

Assays:
[1] = system: N38 cells immortalized mouse hypothalamic cell line; test: Cell morphology analysis (small round necrotic cells); format: cell-based; details: for number of small round (necrotic) cells, vehicle vs TCAP-treated: 48 hrs; for number of rounded cells relative to vehicle: 72 hrs
Description: The effect of TCAP-1 on cell morphology was conducted using the N38 cells immortalized mouse hypothalamic cell line(Belsham et al, 2004). Cells were grown in six-well culture plate with 2 ml of Dulbeco's Modified Eagle Medium (DMEM) with high glucose, […], 25 mM HEPES buffer, pyridoxine hydrochloride in the absence of sodium pyruvate, 5 ml penicillin with 10% fetal bovine serum (FBS) at pH 7.4 (all from Gibco-Invitrogen, Burlington, Canada).
At 24 and 48 hrs, the medium was replaced with medium buffered at pH 6.8, 7.4, 8.0 or 8.4. Half of the cell groups received (2×10^−7 M) TCAP-1, whereas the other half received phosphate buffered saline (PBS) pH 7.4 containing 8 g NaCl, 0.2 g KCl, 1.4 g Na2HPO4, 0.2 g KH2PO4 in. 800 mL ddH2O. For all groups, 4 replicates were run. Digital pictures were taken at 24, 48 and 72 hrs using an Olympus IX&1 inverted microscope at a magnification of 200× and analyzed using LabWorks 4.0 Image Acquisition and Analysis software (UltraViolet Products Ltd).

N38 cells = test: Cell viability by Trypan Blue uptake; format: cell-based, mouse; details: 48 hrs
Description: The proportion of viable cells in the samples was determined by measuring Trypan Blue uptake. At 48 hrs, the cells from the four pH treatments were suspended using 1 ml of Trypsin EDTA, centrifuged at 1600 RPM for 4 min and resuspended in 1 ml of BSS (Hank's Balanced Salt Solution) (Sigma, St. Louis). An aliquot of 0.5 ml of 0.04% Trypan Blue solution was transferred to a 1.5 ml tube, […] of BSS was added to 0.2 ml of the cell suspension; the samples were mixed thoroughly and the cell suspension-Trypan Blue mixture was allowed to stand for 10 minutes and then counted on a hemocytometer. Separate counts were kept for both viable and non viable cells.

caspase 8 = test: Caspase 8 colorimetric assay; format: cell-based, mouse
Description: (§1) Caspase 8 and 3 colorimetric assays were performed on the N38 cells at all pH conditions. The assay was based on the detection of the chromophore pNA after cleavage from the labeled substrate IETD-pNA and DEVD-pNA for caspase 8 and 3, respectively. Comparison of the pNA absorbance from the suspected apoptotic sample was compared to the uninduced neutral pH sample. Caspase 8 and 3 were analysed using the Caspase-3 Colorimetric Activity Assay (Chemicon, Temecula USA) and Caspase-8 Colorimetric Activity Assay (Chemicon, Temecula USA). The cells from each pH treatment described previously at 24 and 48 hrs were removed using a cell scraper and centrifuged at 1500 rpm for 10 minutes. The cells were resuspended in 350 μl of chilled cell lysis buffer containing 500 μl PBS, 5 μl 1% Triton ×100 (Sigma, St. Louis), 25 μl proteinase inhibitor cocktail set III (VWR, Mississauga), 0.5 μM dithiothreitol (DTT) (Sigma, St. Louis) and 2.5 μl phenylmethylsulphonylfluoride (PMSF) diluted in 1 mL of methanol (EM Science, Gibbstown), then incubated on ice for 10 min and centrifuged for 5 minutes at 10,000 rpm. The supernatant, consisting of cytosolic extracts, was transferred to a new tube and a bicinchoninic acid (BCA) protein assay (Pierce, Rockford) was conducted to determine total protein concentration. The absorbance of each sample was measured on a SPECTRAmax Microplate spectrophotometer at 405 nm after an incubation period of 2 hours at 37° C. Changes in caspase 3 activity were determined by comparing the absorbance reading from the induced sample with the level of the uninduced control. Background readings from the buffer were subtracted from the reading of both the induced (pH 6.8, 8.0, 8.4) and uninduced (pH 7.4) samples before calculating changes in caspase 3 activity. The same was done for the detection of caspase 8. As a control, N38 cells were cultured with pH 7.4 DMEM and incubated for 4 days, apoptosis was then induced using 10 μM/ml etoposide and lysed according to the above protocol and used a control for all subsequent caspase 3 detection. All assays were performed with 4 replications.

caspase 3 = test: Caspase 3 colorimetric assay; format: cell-based, mouse
Description: as §1

PARP = PARP cleavage by immunoblot; format: cell-based, mouse; details: 48 hour; all pH treatments
Description: Using the same protocol, changes in PARP expression were determined at 48 hrs. The membrane was incubated with PARP primary antibody (Cell Signaling Technology, Beverly) at a titre of 1:100. The membranes were washed 3 times for 5 min with 10 ml of PBST followed by membrane incubation with anti-rabbit horseradish peroxidase (HRP)-conjugated secondary antibody (Amersham, Baie d'Urfé) at 1:3000 in 6 ml of PBST-milk with gentle agitation for 1 hr at RT. The membranes were then washed 3 times for 5 min with 10 ml of PBST then exposed to Kodak X-OMAT Blue scientific imaging film (Perkin Elmer Canada Inc, Vaudreuil-Dorion) for 30 min. Total optical density of the blots, were quantified using LabWorks 4.0 Image Acquisition and Analysis Software from Ultra-Violet Products Ltd. (UVP).

superoxide radical = test: Superoxide radical measured by conversion of a soluble tetrazolium salt; format: cell-based, mouse; details: 48 hours
Description: The presence of the superoxide radical was measured indirectly by the conversion of a soluble tetrazolium salt in cells after 48 hours (FIG. 8A).

superoxide dismutase = test: Superoxide dismutase western blot; format: cell-based, mouse
catalase = test: Catalase assay on pH treated cells; format: cell-based, mouse
Description: A catalase assay was performed on the pH treated cells in order to determine whether TCAP-1 was conferring survivability to the cells via upregulation of catalase and thus increasing H2O 2 breakdown into H2O and O2 (FIG. 9B). […] Bovine liver was also assayed as a positive control.

Substance: teneurin C-terminus associated peptide [TCAP-1]
- number of small round (necrotic) cells, vehicle vs TCAP-treated ([1]; pH 6.8, p<0.05): significant increase in the number of small round cell types (necrotic cells) in the vehicle-treated cultures
- observable morphological changes ([1]; pH 7.4, TCAP-1 2×10^−7 M): did not induce any observable morphological changes
- number of small round (necrotic) cells, vehicle vs TCAP-treated ([1]; pH 8.0, p<0.001): significant increase in the number of small round cell types (necrotic cells) in the vehicle-treated cultures
- number of rounded cells relative to vehicle ([1]; pH 8.0, p<0.001): significantly decreased the number of rounded cells
- number of small round (necrotic) cells, vehicle vs TCAP-treated ([1]; pH 8.4, p<0.001): significant increase in the number of small round cell types (necrotic cells) in the vehicle-treated cultures
- number of rounded cells relative to vehicle ([1]; pH 8.4, p<0.001): significantly decreased the number of rounded cells
- cell viability by trypan blue uptake (N38 cells; pH 6.8): significant decrease in the number of cells that took up the trypan blue stain
- cell viability by trypan blue uptake (N38 cells; pH 6.8, listed as TCAP): increased the number of viable cells
- cell viability by trypan blue uptake (N38 cells; pH 8.0): significant decrease in the number of cells that took up the trypan blue stain
- cell viability by trypan blue uptake (N38 cells; pH 8.0, listed as TCAP): increased the number of viable cells
- cell viability by trypan blue uptake (N38 cells; pH 8.4): significant decrease in the number of cells that took up the trypan blue stain
- cell viability by trypan blue uptake (N38 cells; pH 8.4, listed as TCAP): increased the number of viable cells
- relative level of caspase 8 activity, of the etoposide-induced increase (caspase 8; pH 7.4): about 70%
- caspase 8 activity vs vehicle (caspase 8; pH 7.4, P<0.001): increased caspase 8 activity
- caspase 8 activity vs vehicle (caspase 8; pH 8.0): no significant differences in caspase 8 and 3 activity
- caspase 8 activity vs vehicle (caspase 8; pH 8.4): no significant differences in caspase 8 and 3 activity
- relative level of caspase 3 activity, of the etoposide-induced increase (caspase 3; pH 6.8): ~40%
- caspase 3 activity vs vehicle (caspase 3; pH 6.8, P<0.05): increased caspase 3 activity
- caspase 3 activity vs vehicle (caspase 3; pH 8.0): no significant differences in caspase 8 and 3 activity
- caspase 3 activity vs vehicle (caspase 3; pH 8.4): no significant differences in caspase 8 and 3 activity
- PARP on western blot, vehicle vs TCAP (PARP): no significant differences between vehicle and TCAP treated samples
- decrease in absorbance of the substrate (proportional to superoxide radical activity) (superoxide radical; pH 8.0, p<0.05): 40%
- decrease in absorbance of the substrate (proportional to superoxide radical activity) (superoxide radical; pH 8.4, p<0.01): 60%
- superoxide dismutase protein expression (superoxide dismutase; pH 6.8): no significant differences in the expression of the superoxide dismutase protein
- superoxide dismutase protein expression (superoxide dismutase; pH 7.4): no significant differences in the expression of the superoxide dismutase protein
- superoxide dismutase protein levels (superoxide dismutase; pH 8.0, p<0.05): reduced the pH-induced decline in superoxide dismutase levels
- superoxide dismutase protein levels (superoxide dismutase; pH 8.4, p<0.01): reduced the pH-induced decline in superoxide dismutase levels
- catalase levels vs vehicle (catalase; pH 6.8): no significant effects
- catalase levels vs vehicle (catalase; pH 7.4): no significant effects
- catalase levels vs vehicle (catalase; pH 8.0, p<0.01): significant TCAP-1 effect
- catalase levels vs vehicle (catalase; pH 8.4, p<0.001): significantly increased catalase levels
